Laboratory results from US20240018121A1, “NOVEL HETEROAROMATIC COMPOUNDS EXHIBITING ANTIFUNGAL ACTIVITY AND THEIR METHOD OF USE” (FOX CHASE CHEMCIAL DIVERSITY CENTER, INC., priority 2020, published 2024).
Converted amounts (≈) assume the structure as drawn.

Experiments:
Format in all cases: cell-based
Candida albicans GDH2346 = test: Candida Minimal Inhibitory Concentration (MIC); conditions: 50% growth inhibition at 48 hours; for MIC50: Candida albicans, GDH2346, read-out: MIC-50 Candida albicans GDH2346
How it was run: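 Twofold serial dilutions from 200 μg/mL in RPMI 1640/MOPS with glucose, pH 7.0, tested in duplicate against yeast from an OD600 1.0 suspension diluted 1:1000. Incubated at 35° C; OD600 read at 24 and 48 h.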

[1] = test system: Fusarium solani (ATCC 58877); test: Fungal MIC Protocol, Fusarium solani; conditions: 100% growth inhibition at 48 hours; for MIC: Fusarium solani, ATCC58877, read-out: MIC Fusarium solani 58877
How it was run: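 Broth microdilution MIC test against Fusarium solani in RPMI/MOPS medium at pH 7.0. Compounds from DMSO stock were diluted to 200 ug/mL, then serially diluted ten times and plated in duplicate at 50 μl per well. 50 ul of spore suspension at OD530 0.005 was added. Controls had compound without cells and spores without compound. Plates were mixed gently, bagged, and incubated at 35° C. for 48 hours.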

[2] = test system: Mucor ramosissimus 057718 (ATCC 90286); test: Fungal MIC Protocol, Mucor ramosissimus (MIC-50); conditions: 50% growth inhibition at 48 hours; for MIC50: Mucor ramosissimus, ATCC90286, read-out: MIC-50 Mucorales ramosissimus 90286
How it was run: (§1)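 MIC-type endpoint: >50% growth inhibition, judged by eye with an inverted mirror. Spores in RPMI/MOPS (pH 7.0, ~2×10^4 cfu/mL) were incubated 48 hours at 35° C with duplicate serial compound dilutions.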

[3] = test system: Mucor circinelloides 1463(62) (ATCC 26759); test: Fungal MIC Protocol, Mucor circinelloides (MIC-50); conditions: 50% growth inhibition at 48 hours; for MIC50: Mucor circinelloides, ATCC26759, read-out: MIC-50 Mucorales circinelloides 26579
How it was run: as §1

[4] = test system: Fusarium falciforme FS1 (ATCC MYA-3636); test: Fungal MIC Protocol, Fusarium falciforme; conditions: 100% growth inhibition at 48 hours; for MIC: Fusarium falciforme, read-out: MIC Fusarium falciforme 3636
How it was run: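 MIC against Fusarium falciforme was determined by broth microdilution in RPMI/MOPS medium containing glucose. Compounds started at 200 ug/mL and were serially diluted ten times, then combined with harvested spores adjusted to an OD530 of 0.005. Controls held compound without cells and spores without compound. Plates were bagged and incubated at 35° C. for 48 hours.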

[5] = test system: Aspergillus fumigatus T33439 (ATCC MYA-3626); test: Fungal MIC Protocol, Aspergillus fumigatus; conditions: 100% growth inhibition at 48 hours; for MIC: Aspergillus fumigatus, read-out: MIC Aspergillus fumigatus 3626
How it was run: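 This broth microdilution MIC test used RPMI/MOPS medium at pH 7.0 with glucose. Compounds were diluted from DMSO stock to 200 ug/mL and serially diluted ten times in 96-well round bottom plates. Equal volumes of compound and Aspergillus spore suspension at OD530 0.002 were combined, with controls of compound without cells and spores without compound. Plates were bagged and incubated at 35° C. for 48 hours.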

[6] = test system: Aspergillus flavus AFL1 (ATCC MYA-3631); test: Fungal MIC Protocol, Aspergillus flavus; conditions: 100% growth inhibition at 48 hours; for MIC: Aspergillus flavus, read-out: MIC Aspergillus flavus 3631
How it was run: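 The MIC against Aspergillus flavus was measured by broth microdilution in RPMI/MOPS medium at pH 7.0. Compounds were diluted to 200 ug/mL from DMSO stocks, then ten serial dilutions were tested in duplicate in round bottom 96-well plates. Spores adjusted to a final OD530 of 0.002 were added, with no-cell and no-compound control wells, and plates were incubated 48 hours at 35° C.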

| Structure (SMILES) | MIC50 (Candida albicans GDH2346) [µg/mL] | MIC [1] [µg/mL] | MIC50 [2] [µg/mL] | MIC50 [3] [µg/mL] | MIC [4] [µg/mL] | MIC [5] [µg/mL] | MIC [6] [µg/mL] | MIC-50 Candida albicans GDH2346 (Candida albicans GDH2346) [µg/mL] | MIC Fusarium solani 58877 [1] [µg·mL] | MIC-50 Mucorales ramosissimus 90286 [2] [µg/mL] | MIC-50 Mucorales circinelloides 26579 [3] [µg/mL] | MIC Fusarium falciforme 3636 [4] [µg·mL] | MIC Aspergillus fumigatus 3626 [5] [µg·mL] | MIC Aspergillus flavus 3631 [6] [µg·mL] |
| --- | --- | --- | --- | --- | --- | --- | --- | --- | --- | --- | --- | --- | --- | --- |
| Cc1cc(-c2cn(-c3ccc(C4=CCN(C(=N)N)CC4)cc3)nn2)ccc1C1=CCN(C(=N)N)CC1 [Example 37, 4-(4-(4-(4-(1-Carbamimidoyl-1,2,3,6-tetrahydropyridin-4-yl)-3-methylphenyl)-1H-1,2,3-triazol-1-yl)phenyl)-5,6-dihydropyridine-1(2H)-carboximidamide] | 0.78 (≈ 1.62 µM) | 0.39 (≈ 0.81 µM) | 6.25 (≈ 13 µM) | 0.39 (≈ 0.81 µM) | 0.39 (≈ 0.81 µM) | 0.39 (≈ 0.81 µM) | 0.2 (≈ 0.415 µM) | – | – | – | – | – | – | – |
| Cn1nc(-c2ccc(C3=CCN(C(=N)N)CC3)cc2)nc1-c1ccc(C2=CCN(C(=N)N)CC2)cc1 [Example 38, 4,4′-(4,4′-(1-Methyl-1H-1,2,4-triazole-3,5-diyl)bis(4,1-phenylene)) bis(5,6-dihydropyridine-1(2H)-carboximidamide)] | – | – | – | – | – | – | – | 6.25 (≈ 13 µM) | <0.1 | 0.78 (≈ 1.62 µM) | 3.13 (≈ 6.5 µM) | 0.2 | 0.2 | 0.16 |
| Cn1c(-c2ccc(C3CCN(C(=N)N)CC3)cc2)nnc1-c1ccc(C2CCN(C(=N)N)CC2)cc1 [Example 39, 4,4′-(4,4′-(4-Methyl-4H-1,2,4-triazole-3,5-diyl)bis(4,1-phenylene))dipiperidine-1-carboximidamide] | 0.78 (≈ 1.61 µM) | 0.78 (≈ 1.61 µM) | > 100 | > 100 | 0.78 (≈ 1.61 µM) | 1.56 (≈ 3.21 µM) | 1.56 (≈ 3.21 µM) | – | – | – | – | – | – | – |
| N=C(N)N1CC=C(c2ccc(-c3nnc(-c4ccc(C5=CCN(C(=N)N)CC5)cc4)o3)cc2)CC1 [Example 41, 4-(4-{5-[4-(1-Carbamimidoyl-1,2,3,6-tetrahydropyridin-4-yl)phenyl]-1,3,4-oxadiazol-2-yl}phenyl)-1,2,3,6-tetrahydropyridine-1-carboximidamide] | 0.39 (≈ 0.832 µM) | 6.25 (≈ 13.3 µM) | 100 (≈ 213 µM) | 100 (≈ 213 µM) | 0.39 (≈ 0.832 µM) | 3.13 (≈ 6.68 µM) | 3.13 (≈ 6.68 µM) | – | – | – | – | – | – | – |
| Cc1cc(-c2nnc(-c3ccc(C4=CCN(C(=N)N)CC4)cc3)o2)ccc1C1=CCN(C(=N)N)CC1 [Example 42, 4-(4-(5-(4-(1-Carbamimidoyl-1,2,3,6-tetrahydropyridin-4-yl)-3-methylphenyl)-1,3,4-oxadiazol-2-yl)phenyl)-5,6-dihydropyridine-1(2H)-carboximidamide] | 0.39 (≈ 0.808 µM) | 1.56 (≈ 3.23 µM) | 25 (≈ 51.8 µM) | 25 (≈ 51.8 µM) | 0.39 (≈ 0.808 µM) | > 25 | 6.25 (≈ 13 µM) | – | – | – | – | – | – | – |
| Cc1cc(C2=CCN(C(=N)N)CC2)ccc1-c1nnc(-c2ccc(C3=CCN(C(=N)N)CC3)cc2)o1 [Example 43, 4-(4-(5-(4-(1-Carbamimidoyl-1,2,3,6-tetrahydropyridin-4-yl)-2-methylphenyl)-1,3,4-oxadiazol-2-yl)phenyl)-5,6-dihydropyridine-1(2H)-carboximidamide] | 0.39 (≈ 0.808 µM) | 0.78 (≈ 1.62 µM) | 25 (≈ 51.8 µM) | 12.5 (≈ 25.9 µM) | 0.2 (≈ 0.414 µM) | 0.78 (≈ 1.62 µM) | 0.31 (≈ 0.642 µM) | – | – | – | – | – | – | – |
| N=C(N)N1CC=C(c2ccc(-c3nnc(-c4ccc(C5=CCN(C(=N)N)CC5)cc4F)o3)c(F)c2)CC1 [Example 48] | 1.56 (≈ 3.09 µM) | 3.13 (≈ 6.2 µM) | 6.25 (≈ 12.4 µM) | 0.78 (≈ 1.55 µM) | < 0.1 | 0.78 (≈ 1.55 µM) | 0.78 (≈ 1.55 µM) | – | – | – | – | – | – | – |
| N=C(N)N1CC=C(c2ccc(-c3nnc(-c4ccc(C5=CCN(C(=N)N)CC5)c(F)c4)o3)cc2F)CC1 [Example 49, 4,4′-(4,4′-(1,3,4-oxadiazole-2,5-diyl)bis(2-fluoro-4,1-phenylene)) bis(5,6-dihydropyridine-1(2H)-carboximidamide)] | 1.56 (≈ 3.09 µM) | 3.13 (≈ 6.2 µM) | 25 (≈ 49.5 µM) | 1.56 (≈ 3.09 µM) | < 0.1 | 3.13 (≈ 6.2 µM) | 0.78 (≈ 1.55 µM) | – | – | – | – | – | – | – |
| N=C(N)N1CC=C(c2ccc(-c3nnc(-c4ccc(C5=CCN(C(=N)N)CC5)cc4F)o3)cc2)CC1 [Example 50, 4-(4-(5-(4-(1-Carbamimidoyl-1,2,3,6-tetrahydropyridin-4-yl)-2-fluorophenyl)-1,3,4-oxadiazol-2-yl)phenyl)-5,6-dihydropyridine-1(2H)-carboximidamide] | 0.78 (≈ 1.6 µM) | 1.56 (≈ 3.21 µM) | 25 (≈ 51.4 µM) | 50 (≈ 103 µM) | < 0.1 | 0.78 (≈ 1.6 µM) | 0.39 (≈ 0.802 µM) | – | – | – | – | – | – | – |

Continued by falling MIC50 (Candida albicans GDH2346), values first:

| MIC50 (Candida albicans GDH2346) [µg/mL] | MIC [1] [µg/mL] | MIC50 [2] [µg/mL] | MIC50 [3] [µg/mL] | MIC [4] [µg/mL] | MIC [5] [µg/mL] | MIC [6] [µg/mL] | MIC-50 Candida albicans GDH2346 (Candida albicans GDH2346) [µg/mL] | MIC Fusarium solani 58877 [1] [µg·mL] | MIC-50 Mucorales ramosissimus 90286 [2] [µg/mL] | MIC-50 Mucorales circinelloides 26579 [3] [µg/mL] | MIC Fusarium falciforme 3636 [4] [µg·mL] | MIC Aspergillus fumigatus 3626 [5] [µg·mL] | MIC Aspergillus flavus 3631 [6] [µg·mL] | Structure (SMILES) |
| --- | --- | --- | --- | --- | --- | --- | --- | --- | --- | --- | --- | --- | --- | --- |
| 0.39 (≈ 0.81 µM) | 1.56 (≈ 3.24 µM) | 25 (≈ 51.9 µM) | 0.39 (≈ 0.81 µM) | < 0.1 | 1.56 (≈ 3.24 µM) | 0.39 (≈ 0.81 µM) | – | – | – | – | – | – | – | Cc1cc(-n2cc(-c3ccc(C4=CCN(C(=N)N)CC4)cc3)nn2)ccc1C1=CCN(C(=N)N)CC1 [Example 35, 4-(4-(1-(4-(1-Carbamimidoyl-1,2,3,6-tetrahydropyridin-4-yl)-3-methylphenyl)-1H-1,2,3-triazol-4-yl)phenyl)-5,6-dihydropyridine-1(2H)-carboximidamide] |
| 0.39 (≈ 0.81 µM) | 0.2 (≈ 0.415 µM) | 3.13 (≈ 6.5 µM) | 0.78 (≈ 1.62 µM) | 0.1 (≈ 0.208 µM) | 0.2 (≈ 0.415 µM) | 0.2 (≈ 0.415 µM) | – | – | – | – | – | – | – | Cc1cc(C2=CCN(C(=N)N)CC2)ccc1-c1cn(-c2ccc(C3=CCN(C(=N)N)CC3)cc2)nn1 [Example 36, 4-(4-(4-(4-(1-Carbamimidoyl-1,2,3,6-tetrahydropyridin-4-yl)-2-methylphenyl)-1H-1,2,3-triazol-1-yl)phenyl)-5,6-dihydropyridine-1(2H)-carboximidamide] |
| 0.16 (≈ 0.332 µM) | 0.39 (≈ 0.81 µM) | 25 (≈ 51.9 µM) | 0.39 (≈ 0.81 µM) | < 0.1 | 0.2 (≈ 0.415 µM) | 0.2 (≈ 0.415 µM) | – | – | – | – | – | – | – | Cc1cc(C2=CCN(C(=N)N)CC2)ccc1-n1cc(-c2ccc(C3=CCN(C(=N)N)CC3)cc2)nn1 [Example 34, 4-(4-(1-(4-(1-Carbamimidoyl-1,2,3,6-tetrahydropyridin-4-yl)-2-methylphenyl)-1H-1,2,3-triazol-4-yl)phenyl)-5,6-dihydropyridine-1(2-H)-carboximidamide] |
| 0.08 (≈ 0.161 µM) | 0.78 (≈ 1.57 µM) | 6.25 (≈ 12.6 µM) | 0.78 (≈ 1.57 µM) | < 0.1 | 0.78 (≈ 1.57 µM) | 0.39 (≈ 0.787 µM) | – | – | – | – | – | – | – | Cc1cc(C2=CCN(C(=N)N)CC2)ccc1-n1nnc(-c2ccc(C3=CCN(C(=N)N)CC3)cc2)c1C [Example 32, 4-(4-(1-(4-(1-Carbamimidoyl-1,2,3,6-tetrahydropyridin-4-yl)-2-methylphenyl)-5-methyl-1H-1,2,3-triazol-4-yl)phenyl)-5,6-dihydropyridine-1(2H)-carboximidamide] |
| 0.08 (≈ 0.161 µM) | 0.025 (≈ 0.0504 µM) | 12.5 (≈ 25.2 µM) | 3.13 (≈ 6.32 µM) | 0.05 (≈ 0.101 µM) | 0.63 (≈ 1.27 µM) | 0.04 (≈ 0.0807 µM) | – | – | – | – | – | – | – | Cc1cc(-n2nnc(-c3ccc(C4=CCN(C(=N)N)CC4)cc3)c2C)ccc1C1=CCN(C(=N)N)CC1 [Example 33, 4-(4-{4-[4-(1-Carbamimidoyl-1,2,3,6-tetrahydropyridin-4-yl)phenyl]-5-methyl-1H-1,2,3-triazol-1-yl}-2-methylphenyl)-1,2,3,6-tetrahydropyridne-1-carboximidamide] |
